# From US20130281413A1, “Salicylate Conjugates Useful For Treating Metabolic Disorders” (Genmedica Therapeutics SL, priority 2008, published 2013)
# Tests used:
# [1] = tested on: Zucker fa/fa rats or ob/ob mice; settings: 120 mg/kg/day subcutaneous infusion, 3-4 weeks; cited from earlier work
# β-cells [2] = test: In vivo beta cell protection model (alloxan), FIG. 6; design: species or system cd-1 mice; settings: for effect of alloxan on β-cells: lysine salts, single i.p. administration 1 hour before alloxan 200 mg/kg
# Experimental: Beta-cell destruction was induced in cd-1 mice after 3 hours of fasting by a single intraperitoneal injection of a freshly prepared solution of alloxan 200 mg/kg (Sigma-Aldrich, San Luis, Mo.) that was dissolved in NaCl 0.9%. Single intraperitoneal drug administration was 1 hour before the alloxan administration. Animals received the different drugs dissolved in PBS pH 7.4, and the animals that not received any drug were injected with the vehicle, in this case PBS pH 7.4. At the end of the treatment, at day 4, animals were killed and the plasma collected and kept at −20° C. until used.
# The circulating glucose concentration was determined by a rapid glucose analyzer (Accu-Chek Aviva; Roche). Plasma triglycerides and non esterified fatty acids were determined with standard colorimetric methods (Biosystems, Barcelona, Spain, and Wako Chemicals, Neuss, Germany, respectively). Plasma insulin concentration was determined by enzyme-linked immunosorbent assay method (CrystalChem, Downers Grove, Ill.).
# β-cells [3] = test: Protection of β-cell failure and prevention of hyperglycemia in streptozotocin treated rats; assay type: in vivo
# [4] = tested on: streptozotocin-induced diabetic mice; test: Type 1 diabetic model in mice (streptozotocin 120 mg/kg i.p.); assay type: in vivo; settings: 4 weeks
# Experimental: Mice induced by streptozotocin injection (120 mg/kg i.p.) are treated for 4 weeks with 250 mg/kg/day (oral or i.p.) of a compound of the present invention, such as […]. At the end of the 4 week treatment, fasting glucose, fructosamine, triglycerides and cholesterol are measured.
# [5] = tested on: animal models of diabetes; test: Summary of effects in different animal models of diabetes; assay type: in vivo
# [6] = tested on: Zucker diabetic fatty (ZDF) rats; test: Restoration of insulin sensitivity in Zucker diabetic fatty (ZDF) rats; assay type: in vivo; settings: 250 mg/kg oral daily
# Experimental: To assess whether conjugates comprising an antioxidant agent and an inflammatory agent would prevent glucose toxicity and progression of diabetes mellitus associated with β-cell failure overtime, we assessed whether compounds of Formula (I), including salnacedin, would alter the development of the disease in this Type 2 diabetic animal model.
# Zucker diabetic rats from 6 to 12 weeks of age are treated daily with an oral dose of 250 mg/kg of a compound of the present invention, such as salnacedin.
# β-cells [7] = test: Preserving β-cell function of mice challenged by one shot of streptozotocin; assay type: in vivo; settings: oral or intraperitoneal, prior and during 5 days following streptozotocin 45 mg/kg i.p.
# Experimental: Further, compounds of the present invention, such as Salnacedin, are tested for their efficiency at preserving β-cell function of mice challenged by one shot of streptozotocin (45 mg/kg i.p.).
# ob/ob and db/db mice = test: Restoration of insulin sensibility in ob/ob and db/db mice; assay type: in vivo
# Experimental: Eight week old ob/ob and db/db mice are treated for 3 to 4 weeks with a daily dose of 250 mg/kg of a compound of the present invention, such as […], by oral gavage or with drug mix with food or subcutaneously. […] Additionally, the levels of insulin are measured 15 min following the glucose loading to determine the capacity of the β-cells to secrete insulin.
# IKKβ = settings: diabetic animals; cited from earlier work
# human diabetic patients = settings: 4.5 g/day; cited from earlier work
# [8] = 250 mg/kg/day oral or i.p., vs control group
compound,measurement,setting,value
O=C(O)c1ccccc1O [Salicylate],fasting blood glucose,[1],reduction in fasting blood glucose
same,glucose tolerance,[1],glucose tolerance improvement
"CC(=O)NC(CSC(=O)c1ccccc1O)C(=O)O (stereo not shown) [GMC-1.3a, salicylic acid-(L) N-acetyl cysteine]",effect of alloxan on β-cells,β-cells [2],reduce the effect of alloxan on β-cells
"CC(=O)N[C@@H](CSC(=O)c1ccccc1O)C(=O)O [Example 1, (R)-2-acetamido-3-(2-hydroxybenzoylthio)propanoic acid]",blood glucose level,"β-cells [3]; pretreated rats vs control group, associated with preserved capacity of β-cell to secrete insulin",lower than the control group
same,β-cell preservation and development of hyperglycemia,"β-cells [3]; rats, ~250 mg/kg orally and/or intraperitoneally prior to streptozotocin 45 mg/kg i.p., followed by 4 additional treatment days","preserve β-cells, reducing the development of hyperglycemia"
same,levels of 8-hydroxy-deoxyguanosine (8 OhdG) and malondialdehyde+4-hydroxy-2-nonenal (4HNE),"β-cells [3]; streptozotocin model, markers of oxidative stress and lipid peroxidation in the blood",reduce
same,cholesterol,[4]; [8],reduced in comparison to control group
same,fasting glucose,[4]; [8],reduced in comparison to control group
same,fructosamine,[4]; [8],reduced in comparison to control group
same,triglycerides,[4]; [8],reduced in comparison to control group
same,reduction in plasmatic parameters compared with a salicylate or an antioxidant alone,"[4]; 250 mg/kg/day, vs salicylic acid alone or N-acetylcysteine alone",more pronounced
same,insulin levels,"β-cells [2]; alloxan-treated animals, indicates pancreatic beta cell protection",preservation of insulin levels
same,"hypolipidemic, anti-diabetic and antioxidant effects",[5],strong hypolipidemic and anti-diabetic effects as well as antioxidant properties
same,Hb1Ac,"[6]; 6 weeks, vs control group",reduced in comparison to the control group
same,cholesterol,"[6]; 6 weeks, vs control group",reduced in comparison to the control group
same,fasting glucose,"[6]; 6 weeks, vs control group",reduced in comparison to the control group
same,fructosamine,"[6]; 6 weeks, vs control group",reduced in comparison to the control group
same,triglycerides,"[6]; 6 weeks, vs control group",reduced in comparison to the control group
same,glucose tolerance test,[6]; from 6 to 12 weeks of age,improves the glucose tolerance test
same,insulin secretion from β-cells,[6]; from 6 to 12 weeks of age,preserves insulin secretion from β-cells
same,worsening of hyperglycemia,[6]; from 6 to 12 weeks of age,partially prevents the worsening of hyperglycemia
same,β-cell protection from oxidative stress and development of hyperglycemia over time,β-cells [7],protects β-cells from oxidative stress and reduces the development of hyperglycemia over time compared to control
same,fasting blood glucose values,"ob/ob and db/db mice; 250 mg/kg daily, 3 to 4 weeks, oral gavage, in food or subcutaneously, vs control or salicylate/antioxidant alone",reduced compared to the control group
same,insulin sensitivity,ob/ob and db/db mice; evidenced by a sustained and pronounced glucose lowering effect,improve insulin sensitivity
same,capacity of the β-cells to secrete insulin,"ob/ob and db/db mice; insulin measured 15 min following the glucose loading, vs control",greater
same,"oxidative stress and lipid peroxidation (8 OhdG, malondialdehyde, 4HNE)",ob/ob and db/db mice; level of associated biomarkers,a reduction in oxidative stress and lipid peroxidation
same,levels of glutathione (GSH),ob/ob and db/db mice; liver and kidney,restored
same,inflammatory cytokines TNFα and IL-6,"ob/ob and db/db mice; mouse, in vivo",reduced
same,glucose tolerance test (OGTT or IPTT): elevation of glucose levels,ob/ob and db/db mice; vs non treated animal,a reduction in the elevation of glucose levels during the test
"CC(=O)N[C@@H](CSC(=O)c1cc(-c2ccc(F)cc2F)ccc1O)C(=O)O [GMC-1.3b, diflunisal-(L) N-acetyl cysteine]",effect of alloxan on β-cells,β-cells [2],reduce the effect of alloxan on β-cells
O=C(Oc1ccccc1C(=O)O)c1ccccc1O [salsalate],IKKβ activity,IKKβ,decrease in IKKβ activity
same,insulin sensitivity,IKKβ,improvement in insulin sensitivity
same,effects in human diabetic patients,human diabetic patients,Beneficial effects
same,"side effects, such as tinnitus, enhanced by",human diabetic patients,66%
